Results on four molecules are retold here after ChEMBL document CHEMBL1130712, “Phenylpiperazine derivatives with strong affinity for 5HT1A, D2A and D3 receptors” (Bioorg Med Chem Lett, 1998).

One experiment has as its target D(2) dopamine receptor (Homo sapiens, UniProt P14416). As to the kind of experiment: Compound was measured for the binding affinity in homogenated mouse fibroblast (LTK) cells transfected with human Dopamine receptor D2A using [3H]raclopride as radioligand.
Another experiment deals with D(3) dopamine receptor (Homo sapiens, UniProt P35462). As to the kind of experiment: Compound was measured for the binding affinity in chinese hamster ovary (CHO) cells transfected with human Dopamine receptor D3 using [3H]raclopride as radioligand. The class given is cell-based.
Experiment [1] addresses T1, 5-hydroxytryptamine receptor 1A (Rattus norvegicus, UniProt P19327).
T1 sequence (P19327 whole entry): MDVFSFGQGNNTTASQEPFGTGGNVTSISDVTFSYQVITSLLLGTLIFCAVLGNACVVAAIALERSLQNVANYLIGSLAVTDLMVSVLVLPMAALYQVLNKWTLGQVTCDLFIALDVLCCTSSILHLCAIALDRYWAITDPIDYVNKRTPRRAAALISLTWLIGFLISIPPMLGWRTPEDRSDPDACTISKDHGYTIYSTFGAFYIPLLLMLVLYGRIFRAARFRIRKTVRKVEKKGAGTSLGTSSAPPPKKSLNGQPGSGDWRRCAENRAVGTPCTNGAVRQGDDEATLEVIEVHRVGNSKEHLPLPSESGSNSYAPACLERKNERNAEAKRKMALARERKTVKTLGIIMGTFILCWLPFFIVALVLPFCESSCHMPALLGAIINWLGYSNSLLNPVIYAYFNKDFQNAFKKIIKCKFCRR
As to the kind of experiment: Compound was measured for the inhibition of [3H]8-OH-DPAT binding to rat hippocampus membrane (5-HT1A receptor). The class given is tissue-based.

Sequence of D(2) dopamine receptor (P14416 whole entry): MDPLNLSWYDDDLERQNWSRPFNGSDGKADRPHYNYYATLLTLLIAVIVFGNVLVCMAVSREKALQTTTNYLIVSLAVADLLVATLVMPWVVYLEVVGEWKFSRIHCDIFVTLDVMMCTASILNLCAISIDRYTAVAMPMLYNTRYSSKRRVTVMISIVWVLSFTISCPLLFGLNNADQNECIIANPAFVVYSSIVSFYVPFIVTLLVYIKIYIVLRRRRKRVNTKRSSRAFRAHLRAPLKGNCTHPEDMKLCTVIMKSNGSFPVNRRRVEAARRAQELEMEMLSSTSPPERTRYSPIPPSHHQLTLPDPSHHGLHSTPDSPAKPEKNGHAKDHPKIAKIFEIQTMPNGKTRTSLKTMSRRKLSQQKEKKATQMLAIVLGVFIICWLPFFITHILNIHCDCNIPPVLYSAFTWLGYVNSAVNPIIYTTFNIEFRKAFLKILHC
Sequence of D(3) dopamine receptor (P35462 whole entry): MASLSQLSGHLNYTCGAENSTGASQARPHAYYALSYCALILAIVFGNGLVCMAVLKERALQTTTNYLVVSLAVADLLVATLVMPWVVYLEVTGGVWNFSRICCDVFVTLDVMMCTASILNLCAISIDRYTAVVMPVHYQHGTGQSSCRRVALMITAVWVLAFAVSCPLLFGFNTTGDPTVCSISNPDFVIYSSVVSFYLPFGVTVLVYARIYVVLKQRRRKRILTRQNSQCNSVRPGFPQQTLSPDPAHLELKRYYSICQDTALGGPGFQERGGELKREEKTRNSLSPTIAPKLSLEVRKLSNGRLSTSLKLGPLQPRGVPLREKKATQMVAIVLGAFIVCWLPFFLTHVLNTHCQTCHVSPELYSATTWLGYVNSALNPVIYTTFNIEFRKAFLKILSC

Broadly, the Ki is a dissociation constant, usually derived from enzyme kinetics or from competition with a known ligand. Low readings indicate tighter binding, high ones weaker binding. As for `O=c1ccc2ccc(OCCCN3CCN(c4ccccc4)CC3)cc2o1`, the results for the inhibition constant Ki (at D(2) dopamine receptor; on D(3) dopamine receptor; in experiment [1]) were 16 nM, 49.7 nM and 5.61 nM, respectively.

Consider `Cc1c(C)c2ccc(OCCCN3CCN(c4ccccc4)CC3)cc2oc1=O`, for which the inhibitory constant (Ki) was found to be 5.92 nM on D(2) dopamine receptor, 44.7 nM on D(3) dopamine receptor and 5.31 nM in experiment [1].

As to `Cc1cc2ccc(OCCCN3CCN(c4ccccc4)CC3)cc2oc1=O`, the Ki came out at 10.8 nM on D(2) dopamine receptor and 18.9 nM at D(3) dopamine receptor.

Regarding `Cc1cc(=O)oc2cc(OCCCN3CCN(c4ccccc4)CC3)ccc12`, the Ki on D(2) dopamine receptor came to 13.7 nM; at D(3) dopamine receptor, 73.8 nM; in experiment [1] it was 5.54 nM.
